Values joined by “and” are separate entries in the source; they are usually repeats but may differ in a detail not shown here. Equal values may be shown once. Read-outs that look alike come from different tables or passages of the source.
Columns and labels:
[1] = tested on: Amaranthus palmeri cytosolic GS1.1 E192K; assay: GS enzyme inhibition assay, GS1.1 E192K; type: biochemical
Description: (§1) GS activity was determined spectrophotometrically following the Sigma‐Aldrich enzymatic assay protocol. The reaction couples the ATP‐dependent conversion of L‐glutamate and ammonium to L‐glutamine with pyruvate kinase (PK) and L‐lactate dehydrogenase (LDH), such that oxidation of β‐NADH to β‐NAD^+ can be monitored at 340 nm. Recombinant GS from A. palmeri was expressed in E. coli, purified by affinity chromatography, and quantified by the Bradford method using bovine serum albumin as standard. […] Reaction mixtures were equilibrated to 37°C and initiated by the addition of enzyme, and the decrease in absorbance at 340 nm was recorded for 5–10 min; only the linear portion of the curve was used for activity calculations. […] Activity was calculated using an extinction coefficient for NADH of 6.22 mM^−1 cm^−1 and expressed as units per mg protein, where one unit corresponds to the formation of 1 μmol of L‐glutamine in […] at pH 7.1 and 37 °C. […] Percent inhibition was calculated relative to untreated (positive) and no‐enzyme (negative) controls. […] Resistance factors were calculated by dividing the IC₅₀ of each mutant variant by that of wild‐type GS.

[2] = tested on: Amaranthus palmeri cytosolic GS1.1 K165S; assay: GS enzyme inhibition assay, GS1.1 K165S; type: biochemical
Description: as §1

[3] = tested on: Amaranthus palmeri cytosolic GS1.1 Y55L; assay: GS enzyme inhibition assay, GS1.1 Y55L; type: biochemical
Description: as §1

[4] = tested on: Amaranthus palmeri cytosolic GS1.1 R291P; assay: GS enzyme inhibition assay, GS1.1 R291P; type: biochemical
Description: as §1

[5] = tested on: Amaranthus palmeri cytosolic GS1.1 C159H; assay: GS enzyme inhibition assay, GS1.1 C159H; type: biochemical
Description: as §1

[6] = tested on: Amaranthus palmeri cytosolic GS1.1 R291H; assay: GS enzyme inhibition assay, GS1.1 R291H; type: biochemical
Description: as §1

[7] = tested on: Amaranthus palmeri cytosolic GS1.1 WT; assay: GS enzyme inhibition assay, GS1.1 WT; type: biochemical; details: for IC50: read-out: Glufosinate‐ammonium IC50
Description: GS activity was determined spectrophotometrically following the Sigma‐Aldrich enzymatic assay protocol. The reaction couples the ATP‐dependent conversion of L‐glutamate and ammonium to L‐glutamine with pyruvate kinase (PK) and L‐lactate dehydrogenase (LDH), such that oxidation of β‐NADH to β‐NAD^+ can be monitored at 340 nm. Recombinant GS from A. palmeri was expressed in E. coli, purified by affinity chromatography, and quantified by the Bradford method using bovine serum albumin as standard. Assays were conducted at 37 °C in 3 mL total volume containing 34.1 mM imidazole (pH 7.1), 102 mM sodium L‐glutamate, 8.5 mM ATP, 1.1 mM phosphoenolpyruvate, 60 mM MgCl₂, 18.9 mM KCl, 45 mM NH₄Cl, 0.25 mM β‐NADH, 28 U PK, 40 U LDH, and 0.4–0.8 U recombinant GS. Reaction mixtures were equilibrated to 37°C and initiated by the addition of enzyme, and the decrease in absorbance at 340 nm was recorded for 5–10 min; only the linear portion of the curve was used for activity calculations. For inhibition assays, GFA was added directly to the reaction mixture to final concentrations ranging from 10^−8 M to 10^−2 M, using 2.5‐fold serial dilutions, with a no‐inhibitor control included in each run. Activity was calculated using an extinction coefficient for NADH of 6.22 mM^−1 cm^−1 and expressed as units per mg protein, where one unit corresponds to the formation of 1 μmol of L‐glutamine in […] at pH 7.1 and 37 °C. Background activity was corrected by including blank assays without GS. Percent inhibition was calculated relative to untreated (positive) and no‐enzyme (negative) controls. Assays were conducted in triplicates. IC₅₀ values (concentration of inhibitor reducing GS activity by 50%) were estimated by nonlinear regression (three‐ or four‐parameter log‐logistic models). Resistance factors were calculated by dividing the IC₅₀ of each mutant variant by that of wild‐type GS.

[8] = molecular target: Amaranthus palmeri cytosolic GS1.1 G245P; assay: GS enzyme inhibition assay, GS1.1 G245P; type: biochemical; details: read-out: Glufosinate‐ammonium IC50
Description: as §1

[9] = tested on: Amaranthus palmeri cytosolic GS1.1 E297S; assay: GS enzyme inhibition assay, GS1.1 E297S; type: biochemical; details: IC50 variant / IC50 WT
Description: as §1

[10] = tested on: Amaranthus palmeri cytosolic GS1.1 S59N; assay: GS enzyme inhibition assay, GS1.1 S59N; type: biochemical
Description: as §1

[11] = tested on: Amaranthus palmeri cytosolic GS1.1 R291L; assay: GS enzyme inhibition assay, GS1.1 R291L; type: biochemical
Description: as §1

[12] = tested on: Amaranthus palmeri cytosolic GS1.1 K177L; assay: GS enzyme inhibition assay, GS1.1 K177L; type: biochemical
Description: as §1

[13] = tested on: Amaranthus palmeri cytosolic GS1.1 K165V; assay: GS enzyme inhibition assay, GS1.1 K165V; type: biochemical
Description: as §1

[14] = tested on: Amaranthus palmeri cytosolic GS1.1 R316A; assay: GS enzyme inhibition assay, GS1.1 R316A; type: biochemical
Description: as §1

[15] = tested on: Amaranthus palmeri cytosolic GS1.1 E69L; assay: GS enzyme inhibition assay, GS1.1 E69L; type: biochemical
Description: as §1

[16] = tested on: Amaranthus palmeri cytosolic GS1.1 V161S; assay: GS enzyme inhibition assay, GS1.1 V161S; type: biochemical
Description: as §1

[17] = tested on: Amaranthus palmeri cytosolic GS1.1 R291G; assay: GS enzyme inhibition assay, GS1.1 R291G; type: biochemical
Description: as §1

[18] = tested on: Amaranthus palmeri cytosolic GS1.1 V161N; assay: GS enzyme inhibition assay, GS1.1 V161N; type: biochemical
Description: as §1

[19] = tested on: Amaranthus palmeri cytosolic GS1.1 Y158A; assay: GS enzyme inhibition assay, GS1.1 Y158A; type: biochemical
Description: as §1

[20] = tested on: Amaranthus palmeri cytosolic GS1.1 D56S; assay: GS enzyme inhibition assay, GS1.1 D56S; type: biochemical
Description: as §1

[21] = tested on: Amaranthus palmeri cytosolic GS1.1 H249L; assay: GS enzyme inhibition assay, GS1.1 H249L; type: biochemical
Description: as §1

[22] = tested on: Amaranthus palmeri cytosolic GS1.1 Y158T; assay: GS enzyme inhibition assay, GS1.1 Y158T; type: biochemical
Description: as §1

[23] = tested on: Amaranthus palmeri cytosolic GS1.1 E131V; assay: GS enzyme inhibition assay, GS1.1 E131V; type: biochemical
Description: as §1

[24] = tested on: Amaranthus palmeri cytosolic GS1.1 D56C; assay: GS enzyme inhibition assay, GS1.1 D56C; type: biochemical
Description: as §1

[25] = tested on: A. palmeri population from Arkansas (CCR); set-up: method as in ref 16 = [16]; 16 Priess GL , Norsworthy JK , Godara N , Mauromoustakos A , Butts TR , Roberts TL et al ., Confirmation of glufosinate‐resistant palmer amaranth and response to other herbicides . Weed Technol 36 : 3; details: CCR population compared with susceptible standards; listed as GFA; cited from earlier work
[26] = tested on: Amaranthus palmeri cytosolic GS1.1 S174E; assay: GS enzyme inhibition assay, GS1.1 S174E; type: biochemical
Description: as §1

[27] = tested on: Amaranthus palmeri cytosolic GS1.1 T60Q; assay: GS enzyme inhibition assay, GS1.1 T60Q; type: biochemical
Description: as §1

[28] = read-out: Glufosinate‐ammonium IC50

In the case of `CP(=O)(O)CCC(N)C(=O)O` (centres unmarked) [Glufosinate‐ammonium], the “Glufosinate‐ammonium % Inhibition at saturation 10 000 μM” value (from here on “Glufosinate‐ammonium % Inhibition”) ([1]; 10 000 μM) is reported as 1.3%, the IC50 [1, 28] is reported as greater than 10000 µM and the “Resistance index (RI)” value ([2]; IC50 variant / IC50 WT) is reported as 0.3. For the same compound, the IC50 [2, 28] was 7.6 µM, the “Resistance index (RI)” value ([3]; IC50 variant / IC50 WT) was 0.8 and the IC50 [3, 28] was 17 µM. For the same compound, the “Glufosinate‐ammonium % Inhibition” value ([4]; 10 000 μM) was 0%, the IC50 [4, 28] was greater than 10000 µM and the “Resistance index (RI)” value ([5]; IC50 variant / IC50 WT) was 186.5. The IC50 [5, 28] was 4050 µM, the “Glufosinate‐ammonium % Inhibition” value ([6]; 10 000 μM) was 0% and the IC50 [6, 28] was greater than 10000 µM. For the same compound, the “Glufosinate‐ammonium % Inhibition” value ([7]; 10 000 μM) was 100%, the “Resistance index (RI)” value ([7]; IC50 variant / IC50 WT) was 1 and the IC50 ([7]; Table 2 panel) was 22.5 µM. For the same compound, the IC50 ([7]; Table 3 panel) was 21.7 µM, the IC50 [8] was 247 µM and the “Resistance index (RI)” value [9] was 0.0. The “Resistance index (RI)” value ([10]; IC50 variant / IC50 WT) was 1.8, the IC50 [10, 28] was 39.5 µM and the “Glufosinate‐ammonium % Inhibition” value ([11]; 10 000 μM) was 0%. For the same compound, the IC50 [11, 28] was greater than 10000 µM, the “Resistance index (RI)” value ([12]; IC50 variant / IC50 WT) was 0.1 and the IC50 [12, 28] was 1.3 µM. The “Resistance index (RI)” value ([13]; IC50 variant / IC50 WT) was 1.5, the IC50 [13, 28] was 33 µM and the “Resistance index (RI)” value ([14]; IC50 variant / IC50 WT) was 14.4. The IC50 [14, 28] was 313 µM, the “Resistance index (RI)” value ([15]; IC50 variant / IC50 WT) was 11.4 and the IC50 [15, 28] was 246 µM. The “Resistance index (RI)” value ([16]; IC50 variant / IC50 WT) was 1.8, the IC50 [16, 28] was 39 µM and the “Glufosinate‐ammonium % Inhibition” value ([17]; 10 000 μM) was 0%. The IC50 [17, 28] was greater than 10000 µM, the “Resistance index (RI)” value ([18]; IC50 variant / IC50 WT) was 3.0 and the IC50 [18, 28] was 64 µM. For the same compound, the “Resistance index (RI)” value ([19]; IC50 variant / IC50 WT) was 64.6, the IC50 [19, 28] was 1400 µM and the “Resistance index (RI)” value ([20]; IC50 variant / IC50 WT) was 2.6. For the same compound, the IC50 [20, 28] was 56 µM, the “Glufosinate‐ammonium % Inhibition” value ([21]; 10 000 μM) was 7.8% and the IC50 [21, 28] was greater than 10000 µM. The “Resistance index (RI)” value ([22]; IC50 variant / IC50 WT) was 3.5, the IC50 [22, 28] was 76 µM and the “Glufosinate‐ammonium % Inhibition” value ([23]; 10 000 μM) was 6.6%. The IC50 [23, 28] was greater than 10000 µM, the “Resistance index (RI)” value ([24]; IC50 variant / IC50 WT) was 0.2 and the IC50 [24, 28] was 3.9 µM. For the same compound, the resistance indices [25] was 5.1 and 5.9, the “Resistance index (RI)” value ([26]; IC50 variant / IC50 WT) was 0.0 and the IC50 [26, 28] was 1 µM. For the same compound, the “Resistance index (RI)” value ([27]; IC50 variant / IC50 WT) was 16.9 and the IC50 [27, 28] was 366 µM.

— article PMC13352219, “Analysis of glutamine synthetase target‐site mutations and their role in endowing glufosinate‐ammonium resistance” (Pest Management Science, 2026)
